Measured values as given in patent US20240317764A1, “SALTS AND SOLID FORMS OF A COMPOUND HAVING APJ RECEPTOR ACTIVITY” (Annapurna Bio, Inc., priority 2022, published 2024).
Values after ≈ are worked out from the molar mass of the structure shown. “Also recorded” adds a separate entry of the source. Structures can show the parent of a compound that is named as a salt.

How the values were obtained:
[1] = Hygroscopicity by DVS at 25° C. between 0% RH and 95% RH, XRPD after DVS; format: physicochemical; settings: for Water uptake (25° C./80% RH): DVS; for Form change after DVS: XRPD after DVS test; for Water uptake, comparison between forms (in words): DVS at 25° C., 0% RH to 95% RH
Protocol: DVS was measured via a SMS (Surface Measurement Systems) DVS Intrinsic. The relative humidity at 25° C. were calibrated against deliquescence point of LiCl, Mg(NO3)2 and KCl.
In order to evaluate the hygroscopicity of Compound I free acid Form A and re-prepared salt forms, DVS isotherm plots were collected at 25° C. between 0% RH and 95% RH. XRPD characterization was performed for the samples after DVS test.

[2] = Solid stability, 54 and 91 days (XRPD and HPLC purity); format: physicochemical; settings: 25° C./60% RH or 40° C./75% RH
From the text: (§1) The re-prepared choline salt Form A was used for evaluation, including solubility and solid stability. Free acid Form A was selected as comparison for pH solubility and solid stability evaluation.

[3] = Approximate solubility of Compound I free acid Form A in 14 solvents at RT; format: physicochemical
Protocol: Approximate solubility of starting material (Compound I free acid Form A) was determined in 14 solvents at RT. Approximately 2 mg of sample was added into a 3-mL glass vial. Solvents in Table 1-3 were then added stepwise into the vials until the solids were dissolved visually or a total volume of 2 mL was reached. Solubility results summarized in Table 1-1 were used to guide the solvent selection in screening experiment design.

[4] = Dog pharmacokinetic study after oral administration, plasma by LC-MS/MS; format: in vivo, male Beagle dogs; settings: for AUC(0-t) / Tmax / Cmax: male, Beagle, 30 mg/kg; for AUC(0-t) / Cmax: mean; for AUC(0-t): t = 24 h; for Tmax: median value or range; for Cmax: plasma Compound I
Protocol: The objective of this study was to characterize the pharmacokinetics (PK) of Compound I in male Beagle dogs after oral (P0) administration. The P0 formulation was prepared in capsule or prepared in 0.50% or […] (methyl cellulose) in water at a concentration of 6 mg/mL for oral administration at 30 mg/kg.
LC-MS/MS for the PK studies was carried out using the following instruments/conditions.
Compound I Free acid Form A and Compound I choline salt Form A were formulated as an oral suspension at a target dose concentration of 6 mg/mL in 0.500 or 1% MC in water.
The dose was administered orally by gavage at a target dose volume of 5 mL/kg. Compound I choline salt Form A was also formulated as an oral capsule at a target dose concentration of 30 mg/kg. The formulation was prepared on the day of dosing and stored at room temperature prior to administration. The dose was administered orally by gavage to dogs. Following oral administration, blood samples were collected from […] at pre-dose, 0.083, 0.25, 0.5, 1, 2, 4, 8 and 24 h post dose.
The plasma concentration of Compound I was determined by liquid chromatography with mass spectrometric detection (LC-MS/MS).

physchem = settings: thermodynamic from solid
Protocol: The solubility of starting material (Compound I choline salt Form A) was estimated at room temperature (RT, ˜26° C.). Specifically, approximate 2 mg solid was added into HPLC glass vials. Solvents in Table 5-2 were then added stepwise (50/50/200/700 μL) into the vials until the solids were dissolved or a total volume of 1.0 mL was reached.

[5] = pH buffers
From the text: as §1

[6] = compared to Compound I choline salt Form A

## CCOc1cccc(-c2nc3ncc([N-]S(C)(=O)=O)nc3n2-c2c(OC)cccc2OC)n1.[Na+] [Compound I sodium salt Form A, N-(1-(2,6-dimethoxyphenyl)-2-(6-ethoxypyridin-2-yl)-1H-imidazo[4,5-b]pyrazin-6-yl)methanesulfonamide sodium salt Form A]
[1]
  Water uptake (25° C./80% RH): 1.13%
[1]; listed as Compound I Na salt Form A
  Form change after DVS: converted to a new form after DVS test; also recorded: form change was observed after DVS
[1]; listed as Na salt Form A
  Form change after DVS: Yes*
[1]; [6]
  Hygroscopicity (in words): exhibited hygroscopicity
  Stability after exposure to high humidity (in words): less stable after exposed to high humidity

## CCOc1cccc(-c2nc3ncc(NS(C)(=O)=O)nc3n2-c2c(OC)cccc2OC)n1 [Compound I free acid Form A, N-(1-(2,6-dimethoxyphenyl)-2-(6-ethoxypyridin-2-yl)-1H-imidazo[4,5-b]pyrazin-6-yl)methanesulfonamide]
[2]
  Solid stability: form change (XRPD) and HPLC purity: no form change or obvious HPLC purity decrease
[3]; organic solvent or mixture, thermodynamic from solid, 1,4-dioxane
  solubility: 2000 to 5000 µg/mL (≈ 4.25 to 10.6 mM)
[3]; organic solvent or mixture, thermodynamic from solid, 2-MeTHF
  solubility: < 1000 µg/mL
[3]; organic solvent or mixture, thermodynamic from solid, ACN
  solubility: 2000 to 5000 µg/mL (≈ 4.25 to 10.6 mM)
[3]; organic solvent or mixture, thermodynamic from solid, DCM
  solubility: 5300 to 10500 µg/mL (≈ 11.3 to 22.3 mM)
[3]; organic solvent or mixture, thermodynamic from solid, EtOAc
  solubility: < 1000 µg/mL
[3]; organic solvent or mixture, thermodynamic from solid, EtOH
  solubility: < 1100 µg/mL
[3]; organic solvent or mixture, thermodynamic from solid, IPA
  solubility: < 900 µg/mL
[3]; organic solvent or mixture, thermodynamic from solid, MTBE
  solubility: < 900 µg/mL
[3]; organic solvent or mixture, thermodynamic from solid, MeOH
  solubility: 1000 to 2100 µg/mL (≈ 2.13 to 4.46 mM)
[3]; organic solvent or mixture, thermodynamic from solid, THF
  solubility: 9000 to 18000 µg/mL (≈ 19.1 to 38.3 mM)
[3]; organic solvent or mixture, thermodynamic from solid, acetone
  solubility: 2100 to 5200 µg/mL (≈ 4.46 to 11.1 mM)
[3]; organic solvent or mixture, thermodynamic from solid, n-heptane
  solubility: < 1300 µg/mL
[3]; organic solvent or mixture, thermodynamic from solid, toluene
  solubility: < 800 µg/mL
[3]; water, thermodynamic from solid, H2O
  solubility: < 1200 µg/mL
[1]
  Water uptake, comparison between forms (in words): lowest water uptake
  Water uptake (25° C./80% RH): 0.03%
  Form change after DVS: No
[1]; listed as free acid Form A
  Water uptake, comparison between forms (in words): lowest water uptake
[4]; plasma, suspension
  AUC(0-t): 13.8 µg·h/mL
  Tmax: 4 h
[4]; suspension
  Cmax: 983 ng/mL

## CCOc1cccc(-c2nc3ncc([N-]S(C)(=O)=O)nc3n2-c2c(OC)cccc2OC)n1.[K+] [Compound I potassium salt Form A, N-(1-(2,6-dimethoxyphenyl)-2-(6-ethoxypyridin-2-yl)-1H-imidazo[4,5-b]pyrazin-6-yl)methanesulfonamide potassium salt Form A]
[1]
  Water uptake, comparison between forms (in words): No significant difference
  Water uptake (25° C./80% RH): 3.71%
  Form change after DVS: No

## CCOc1cccc(-c2nc3ncc(NS(C)(=O)=O)nc3n2-c2c(OC)cccc2OC)n1 [Compound I choline salt Form A, N-(1-(2,6-dimethoxyphenyl)-2-(6-ethoxypyridin-2-yl)-1H-imidazo[4,5-b]pyrazin-6-yl)methanesulfonamide choline salt Form A]
[2]
  Solid stability: form change (XRPD) and HPLC purity: no form change or obvious HPLC purity decrease; also recorded: physically/chemically stable
[2]; listed as choline salt Form A
  Solid stability: form change (XRPD) and HPLC purity: no form change or obvious HPLC purity decrease; also recorded: physically/chemically stable
physchem; 1,4-Dioxane, 26 °C, organic solvent or mixture
  solubility: < 2100 µg/mL
physchem; 2-Butanol, 26 °C, organic solvent or mixture
  solubility: < 1800 µg/mL
physchem; 2-MeTHF, 26 °C, organic solvent or mixture
  solubility: < 1800 µg/mL
physchem; ACN, 26 °C, organic solvent or mixture
  solubility: 7100 to 21400 µg/mL
physchem; ACN/IPAc (1:1), 26 °C, organic solvent or mixture
  solubility: < 2100 µg/mL
physchem; ACN/IPAc (9:1), 26 °C, organic solvent or mixture
  solubility: 2200 to 7300 µg/mL
physchem; ACN/Toluene (1:1), 26 °C, organic solvent or mixture
  solubility: 2100 to 7000 µg/mL
physchem; ACN/Toluene (9:1), 26 °C, organic solvent or mixture
  solubility: 6300 to 18800 µg/mL
physchem; Acetone/H2O (19:1), 26 °C, organic solvent or mixture
  solubility: 7200 to 21600 µg/mL
physchem; CHCl3, 26 °C, organic solvent or mixture
  solubility: < 2100 µg/mL
physchem; CPME, 26 °C, organic solvent or mixture
  solubility: < 1800 µg/mL
physchem; DCM, 26 °C, organic solvent or mixture
  solubility: < 2100 µg/mL
physchem; DMF, 26 °C, organic solvent or mixture
  solubility: 20200 to 40400 µg/mL
physchem; DMSO, 26 °C, organic solvent or mixture
  solubility: 18800 to 37600 µg/mL
physchem; EtOAc, 26 °C, organic solvent or mixture
  solubility: < 1700 µg/mL
physchem; EtOH, 26 °C, organic solvent or mixture
  solubility: 6800 to 20500 µg/mL
physchem; EtOH/H2O (19:1), 26 °C, organic solvent or mixture
  solubility: 6600 to 19900 µg/mL
physchem; IPA/ACN (1:1), 26 °C, organic solvent or mixture
  solubility: 7000 to 21000 µg/mL
physchem; IPAc, 26 °C, organic solvent or mixture
  solubility: < 2000 µg/mL
physchem; MEK, 26 °C, organic solvent or mixture
  solubility: < 2000 µg/mL
physchem; MIBK, 26 °C, organic solvent or mixture
  solubility: < 2300 µg/mL
physchem; MTBE, 26 °C, organic solvent or mixture
  solubility: < 2100 µg/mL
physchem; MeOH/DCM (1:1), 26 °C, organic solvent or mixture
  solubility: > 39600 µg/mL
physchem; MeOH/DCM (1:9), 26 °C, organic solvent or mixture
  solubility: > 40800 µg/mL
physchem; MeOH/DCM (1:19), 26 °C, organic solvent or mixture
  solubility: > 38600 µg/mL
physchem; THF, 26 °C, organic solvent or mixture
  solubility: < 1800 µg/mL
physchem; THF/H2O (19:1), 26 °C, organic solvent or mixture
  solubility: > 40400 µg/mL
physchem; acetone, 26 °C, organic solvent or mixture
  solubility: < 2400 µg/mL
physchem; isopropanol (IPA), 26 °C, organic solvent or mixture
  solubility: < 2200 µg/mL
physchem; methanol, 26 °C, organic solvent or mixture
  solubility: > 45200 µg/mL
physchem; n-heptane, 26 °C, organic solvent or mixture
  solubility: < 2100 µg/mL
physchem; toluene, 26 °C, organic solvent or mixture
  solubility: < 2200 µg/mL
physchem; water, 26 °C
  solubility: > 43000 µg/mL
IPA, acetone, MEK, MIBK, ethyl acetate, isopropyl acetate, MTBE, THF, 2-MeTHF, CHCl3, n-heptane, toluene, DCM, 1,4-dioxane
  Solubility in certain non-polar solvents (in words): less soluble
methanol, DMSO, and water
  Solubility in polar solvents (in words): good solubility
[5]
  pH solubility compared with free acid Form A: higher solubility than free acid Form A
[1]
  Water uptake, comparison between forms (in words): No significant difference
  Water uptake (25° C./80% RH): 3.85%
  Form change after DVS: No
[4]; plasma, po, capsule
  Cmax: 11900 ng/mL
  AUC(0-t): 145 µg·h/mL
[4]; plasma, po, suspension
  Cmax: 73800 ng/mL
  AUC(0-t): 1120 µg·h/mL
  Tmax: 2 to 4 h
[4]; suspension and capsule
  Pharmacokinetic profile (in words): excellent pharmacokinetic profiles
[4]; suspension or capsule
  Mean AUClast and Cmax compared with free acid Form A suspension: greater than that of Compound I free acid Form A
